Test systems include MDA-MB-435; SNB-19; NCI-H460; OVCAR-4; SR; MDA-N; NCI/ADR-RES; UACC-257; NCI-H23; SK-OV-3; OVCAR-5; U-251; MCF7; PC-3; NCI-H226; MOLT-4; Hs-578T; HOP-62; HCC 2998; 786-0.
Common to all, as to assay: growth of human tumour cells (NCI), 48 h

Molecules are shown by their SMILES.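 Growth conditions: 96-well plates. Treatment: test compound, 48 hours, 5 concentrations. Analysis: linear interpolation between bracketing concentrations; unreached endpoints set to highest concentration. Here, GI50 denotes the concentration required for 50% inhibition of growth.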 Activity calls are given as the source filed them. No stated cut-off is given here; in the data, active = GI50 up to about 1.1 µM and inactive = higher. A value given as a limit tells only on which side of the number the result lay.

As to `O=C1CC(c2cccc(Cl)c2)Nc2ccc(N3CCCC3)cc21` (stereo not given), the GI50 in the experiment with MDA-MB-435 was 0.00484 µM (active); in the experiment with SNB-19 it was 0.0332 µM (active); with NCI-H460, 0.0506 µM (active); in the experiment on OVCAR-4 it was 6.89 µM (inactive); in the experiment with SR, 0.0304 µM (active); with MDA-N it was 0.00359 µM (active). For the same molecule, the GI50 in the experiment with NCI/ADR-RES was 0.0274 µM (active); in the experiment on UACC-257, 0.0687 µM (active); in the experiment on NCI-H23, 0.278 µM (active); in the experiment on SK-OV-3 it was 0.193 µM (active); with OVCAR-5 it was 0.526 µM (active); in the experiment with U-251, 0.0314 µM (active). The GI50 in the experiment on MCF7 was 0.555 µM (active); in the experiment on PC-3 it was 0.0343 µM (active); with NCI-H226, 0.0721 µM (active); in the experiment on MOLT-4, 0.0802 µM (active); with Hs-578T, 0.01 µM (active); in the experiment on HOP-62, 0.419 µM (active). In addition, the GI50 with HCC 2998 is 0.335 µM (active); in the experiment on 786-0, 0.0577 µM (active).

`c1ccc2c(c1)CN1CCCC1CN2` (stereo not given): the GI50 with MDA-MB-435, in the experiment with SNB-19, in the experiment on NCI-H460, with OVCAR-4, in the experiment with SR and in the experiment with MDA-N was > 100 µM (inactive) in each case. Besides, the GI50 in the experiment with NCI/ADR-RES, in the experiment with UACC-257, in the experiment with NCI-H23, with SK-OV-3, in the experiment on OVCAR-5 and with U-251 was > 100 µM (inactive) throughout. Further, the GI50 in the experiment with MCF7, in the experiment on PC-3, in the experiment on NCI-H226, in the experiment on MOLT-4, in the experiment with Hs-578T and in the experiment on HOP-62 was > 100 µM (inactive) in each case. Moreover, the GI50 in the experiment with HCC 2998 and in the experiment with 786-0 was > 100 µM (inactive) throughout.

Turning to `Nc1ncnc2c1cnn2COCC(O)CO` (stereo not given), the GI50 in the experiment with MDA-MB-435, with SNB-19, in the experiment with NCI-H460, with OVCAR-4, with SR and with MDA-N was > 100 µM (inactive) in each case. For the same molecule, the GI50 in the experiment with NCI/ADR-RES, in the experiment with UACC-257, with NCI-H23, in the experiment on SK-OV-3, in the experiment on OVCAR-5 and with U-251 was > 100 µM (inactive) throughout. Also, the GI50 in the experiment with MCF7, with PC-3, in the experiment on NCI-H226, in the experiment with MOLT-4, in the experiment with Hs-578T and in the experiment with HOP-62 was > 100 µM (inactive) throughout. Moreover, the GI50 in the experiment on HCC 2998 and with 786-0 was > 100 µM (inactive) in each case.

Take `C=C(Br)CNC(=O)CCC(=O)NCC(=C)Br`: the GI50 in the experiment with MDA-MB-435, with SNB-19, in the experiment on NCI-H460, with OVCAR-4, in the experiment on SR and with MDA-N was > 100 µM (inactive) each time. In addition, the GI50 in the experiment on NCI/ADR-RES, in the experiment on UACC-257, in the experiment on NCI-H23, with SK-OV-3, in the experiment with OVCAR-5 and with U-251 was > 100 µM (inactive) throughout. Further, the GI50 in the experiment on MCF7, in the experiment on PC-3, in the experiment with NCI-H226, in the experiment with MOLT-4, with Hs-578T and in the experiment on HOP-62 was > 100 µM (inactive) each time. Moreover, the GI50 in the experiment with HCC 2998 and in the experiment with 786-0 was > 100 µM (inactive) each time.
